The source of these data is patent US11667621B2, “Antiestrogen compounds” (STEVENS INSTITUTE OF TECHNOLOGY, priority 2018, dated 2023).

Holding throughout (assay type): cell-based
Experiment [1] deals with T1, HA-ERα wild type (Homo sapiens, UniProt P03372).
T1 construct: HA; expressed in transfected cells
T1 sequence (P03372 1-595): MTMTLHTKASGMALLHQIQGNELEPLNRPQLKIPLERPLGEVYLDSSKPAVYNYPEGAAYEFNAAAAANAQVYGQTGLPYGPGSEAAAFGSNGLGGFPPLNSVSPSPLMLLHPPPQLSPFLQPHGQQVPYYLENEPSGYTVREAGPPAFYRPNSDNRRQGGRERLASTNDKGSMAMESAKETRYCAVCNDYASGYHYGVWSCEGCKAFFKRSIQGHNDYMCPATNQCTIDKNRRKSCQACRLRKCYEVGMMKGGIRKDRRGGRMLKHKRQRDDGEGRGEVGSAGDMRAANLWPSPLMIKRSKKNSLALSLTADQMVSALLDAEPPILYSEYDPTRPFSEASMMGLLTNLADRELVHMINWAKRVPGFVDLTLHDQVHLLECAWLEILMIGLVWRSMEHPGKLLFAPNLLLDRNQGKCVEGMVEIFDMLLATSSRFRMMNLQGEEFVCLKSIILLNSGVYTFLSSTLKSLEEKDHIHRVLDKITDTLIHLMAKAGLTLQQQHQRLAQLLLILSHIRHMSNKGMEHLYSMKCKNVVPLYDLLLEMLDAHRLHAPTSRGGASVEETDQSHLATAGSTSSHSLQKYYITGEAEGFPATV
Put plainly: Luciferase assay, overexpressed ER (3×-ERE-TATA-Luciferase reporter). The conditions noted are these: compound concentration 1 μM, 24 hours; read-out: Overexpressed ER (% Inhibition) WT. An outline of the steps:
(§1)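 Cells transfected with HA-ERα wild type or mutant, 3×-ERE-TATA firefly luciferase reporter and pRL-TK Renilla, then treated one day later with compound for 24 h.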
(A reporter such as luciferase makes a cellular process visible.)

For experiment [2], the target named is T2, HA-ERα Y537S (Homo sapiens, UniProt P03372, Y537S).
T2 construct: HA; expressed in transfected cells
T2 sequence (P03372 1-595 Y537S): T1 sequence (P03372 1-595) with Y537S
Described as above. The conditions noted are these: compound concentration 1 μM, 24 hours. In a few lines: as §1

Experiment [3] deals with T3, HA-ERα L536R (Homo sapiens, UniProt P03372, L536R).
T3 construct: HA; expressed in transfected cells
T3 sequence (P03372 1-595 L536R): T1 sequence (P03372 1-595) with L536R
The experiment is described as above. Particulars: compound concentration 1 μM, 24 hours. In a few lines: as §1

Experiment [4] has as its target T4, HA-ERα D538G (Homo sapiens, UniProt P03372, D538G).
T4 construct: HA; expressed in transfected cells
T4 sequence (P03372 1-595 D538G): T1 sequence (P03372 1-595) with D538G
Described as above. Particulars: compound concentration 1 μM, 24 hours. An outline of the steps: as §1

For experiment [5], the target named is T5, CRISPR KI D538G (Homo sapiens, UniProt P03372, D538G).
T5 construct: endogenous in cells; host or cells: CRISPR knock-in clones (cl. 50, cl. 65)
T5 sequence (P03372 1-595 D538G): T1 sequence (P03372 1-595) with D538G
Put plainly: Luciferase assay, CRISPR KI D538G clones. Here is the method:
Luciferase assays were performed to determine the efficacy of the example compounds at inhibiting ER or its mutants' ability to activate transcription of genes.
Cells were plated at a density of 0.15×10^6 per well of 24 well plates one day prior to transfection. Cells were transfected with 125 ng (per well) of HA-ERα wild type or mutants, 315 ng (per well) of 3×-ERE-TATA-Luciferase reporter and 50 ng (per well) of pRL-TK Renilla Luciferase plasmid, using Xtremegene (Roche). The cells were treated with the various compounds or Fulvestrant at the indicated doses a day after transfection for 24 hours and luciferase activities were determined using the Dual-Luciferase® Reporter Assay System (Promega) according to manufacturer's instructions. Luciferase bioluminescence measurements were performed with the Veritas™ Microplate Luminometer (Promega). All experiments were conducted in triplicate and the Firefly luciferase activity was normalized with the Renilla luciferase activity of each sample.

SMILES strings stand for the structures. Residue numbers refer to the chain shown, from its start.

Broadly, the inhibition is the share of the control response that was lost under treatment. For `O=C(NCCCCOc1ccc(C(=C2C3CC4CC(C3)CC2C4)c2ccc(O)cc2)cc1)[C@H]1CC[C@H](C(F)(F)F)CC1` [Example 14, (trans)-N-(4-(4-(Adamantan-2-ylidene(4-hydroxyphenyl)methyl)phenoxy)-butyl)-4-(trifluoromethyl)cyclohexanecarboxamide], the inhibition at 1 µM was determined as 81% in experiment [1], 26% in experiment [2], 82% in experiment [3] and 88% in experiment [4]. For the same compound, in experiment [5] (clone 50), the “CRISPR KI (% Inhibition) D538G cl. 50” value is recorded as 67%. The “CRISPR KI (% Inhibition) D538G cl. 65” value in experiment [5] (clone 65) stood at 73%.
